Laboratory results reported in US20060257481A1, “Sustained release formulation and dosing schedule of leukotriene synthesis inhibitor for human therapy” (deCODE Genetics ehf., priority 2005, published 2006).
Where “and” joins values, the source holds several entries; their conditions need not be identical. Equal entries are not always repeated. Where two headings read alike, the source gives them in different places.

What was measured:
[1] = healthy volunteers, cited from earlier work
LDL cholesterol = test: Study DG-031-201: LDL cholesterol; type: in vivo, human; conditions: highest dose; [4%,12%], p<0.001
Experimental: (§1) Patients who met the study eligebility criteria were enrolled and randomized into 3 different dose-level groups: (1) 64 patients on 250 mg/day therapy with DG-031 (250 mg q.d.), vs placebo; (2) 64 patients on 500 mg/day therapy with DG-031 (250 mg b.i.d.) vs placebo; and (3) 63 patients on 750 mg/day therapy with DG-031 (250 mg t.i.d.) vs placebo. […] All patients received 3 tablets per day. Treatment periods, 4 weeks in duration each, were separated by a 2-week washout period. The placebo tablets were identical in shape, color, form and taste to the active tablets except that they contained no active drug ingredients. Treatment with DG-031 or placebo was in addition to the subject's standard care, including all medications and treatment plan as prescribed by the subject's cardiologist prior to enrolment. A total of 191 subjects were enrolled, with 172 completing all 8 visits or 8 patients short of the target of 180 patients.
12% for MPO ([2%,21%], p=0.02) at the 750 mg/day dose of DG-031. […] Urine levels of LTE4 increased by 27% in response to the highest dose of DG-031 ([15%,40%], p<0.001). Significant correlation was observed between the change of LTB4 and MPO production (r=0.62 [0.51,0.70], p<0.001) within a period, also when considering only those taking drug where the range of these changes were larger. Correlation was also observed for these variables at baseline. […]

[2] = system: LTB4 produced by ionomycin-activated neutrophils ex vivo; test: Study DG-031-201: LTB4 in whole blood ex vivo after ionomycin activation, mass spectrometry; parameters: species or system human
Experimental: as §1
(§2) The primary objective was to determine whether the FLAP inhibitor has a statistically significant effect, compared to placebo, on one or more biomarkers of MI risk, including: (1) ionomycin-induced LTB4 and MPO release by neutrophils ex vivo; (2) MPO, CRP, N-tyrosine, Lp-PLA2 or amyloid A in serum, or (3) LTE4 in urine. The secondary objective was to determine whether the effect of DG-031 was dose-dependent. The tertiary objective was to assess other biomarkers (See Results). Evaluation of safety and tolerability of the drug was also a primary endpoint.
All data were analyzed according to a pre-established statistical analysis plan (SAP) and by intention-to-treat (ITT). Each arm of the study, as well as pooled sets (combining dose levels), was considered for the primary analysis. Each such set is an AB/BA cross-over design and in the primary analysis of efficacy, the levels of biomarkers of MI risk at the end of the treatment periods (visits 4 and 7) were used as primary response variables. The difference between DG-031 and placebo treatment was the primary outcome, assessed separately for each of the biomarkers. Treatment effect was tested using a two-sample t-test on the period differences for suitably transformed response variables, under an assumption of normality of the transformed data. We report treatment effect as one half of the observed mean differences in the two-sample t-test, with a 95% CI. No pre-tests for carry-over effect were performed as a part of the primary analysis. Tests for carry-over were done and are reported separately from results of primary analysis. All hypotheses were tested at a two-sided nominal significance level of 0.05 and p-values based on t-tests are reported. […]

[3] = Pharmacokinetics of DG-031 dosing schedules, plasma concentration (studies 201 and 203); conditions: for Peak concentration with trough concentration of 3 μg/mL maintained: steady-state, both half-lives
Experimental: Measurements of plasma DG-031 can be carried out by methods that are standard in the art. […] The DG-031 is then measured by liquid chromatography and/or mass spectrometry and the measured concentration is compared to a standard curve.
After completion of the double-blind study reported herein an open-label randomized study was conducted in an independent cohort but with same eligibility criteria and measuring several of the same biomarkers. […] Each patient was on drug for 8 days; there was no placebo group. The primary objective of this study was to determine pharmacokinetic parameters of DG-031 in three different doses, as well as to assess the pharmacokinetic/pharmacodynamic relationship between DG-031, LTB4 and MPO.
The additional phase II study was conducted to compare a 750 mg total daily dose administered in a BID or TID dosing regimen.

[4] = system: LTB4 production (ex vivo); test: Study DG-031-203 open label dose ranging: capacity for LTB4 production ex vivo; type: in vivo, human
Experimental: (§3) The study also collected information on the dose-related effect of DG-031 on capacity for LTB4 production (ex vivo), plasma MPO, and serum-CRP. […] The pattern observed supported a concentration dependent pharmacologic effect of DG-031 on capacity for LTB4 production measured ex vivo. The effects on LTB4 production amounted to a 30% (p=0.016) and 25% (p=0.094) reduction with the 375 mg BID and 250 mg TID doses, respectively.

MPO = test: Study DG-031-203 open label dose ranging: plasma MPO; type: in vivo, human
Experimental: as §3

[5] = system: LTB4 produced by ionomycin-activated neutrophils ex vivo; test: Study DG-031-201: LTB4 in whole blood ex vivo after ionomycin activation (ELISA); parameters: species or system human
Experimental: as §1, §2
All data were analyzed according to a pre-established statistical analysis plan (SAP) and by intention-to-treat (ITT). Each arm of the study, as well as pooled sets (combining dose levels), was considered for the primary analysis. Each such set is an AB/BA cross-over design and in the primary analysis of efficacy, the levels of biomarkers of MI risk at the end of the treatment periods (visits 4 and 7) were used as primary response variables. The difference between DG-031 and placebo treatment was the primary outcome, assessed separately for each of the biomarkers. Treatment effect was tested using a two-sample t-test on the period differences for suitably transformed response variables, under an assumption of normality of the transformed data. We report treatment effect as one half of the observed mean differences in the two-sample t-test, with a 95% CI. No pre-tests for carry-over effect were performed as a part of the primary analysis. Tests for carry-over were done and are reported separately from results of primary analysis. All hypotheses were tested at a two-sided nominal significance level of 0.05 and p-values based on t-tests are reported. In addition, for the primary efficacy endpoints where the effects of the two highest doses on 10 primary variables were studied, a randomization test was performed which corrects for multiple testing and ensures that the key results are not affected by distributional concerns. In particular, 1 million permutations of the patients into the different study tracks were performed, generating a reference distribution for the maximum of the 10 t-statistics of the biomarkers under the null hypothesis of no drug effect. By comparing the observed t-statistic of each of the 10 biomarkers to this reference distribution, empirical p-values were computed. As was stated in the SAP prior to unblinding, it was considered likely that experimental manipulations would alter the effect of the drug on two of the primary markers; this was indeed the case and we are only reporting directly on 8 of the 10 primary markers but all 10 are included in the randomization test.
Biomarker measurements: The ELISA and mass spectrometry assays used are described in the following references: Profita et al., J Pharmacol Exp Ther. 300:868-75, 2002; Roberts et al., Clin Chem. 47:418-25, 2001; Dada et al., Expert Rev Mol Diagn. […]

[6] = difference visit 2 to visit 5, 500 and 750 mg/day vs placebo cohort

In the case of `O=C(O)[C@@H](c1ccc(OCc2ccc3ccccc3n2)cc1)C1CCCC1` [DG-031, (R)-(+)-alpha-cyclopentyl-4-(2-quinolinylmethoxy)-Benzeneacetic acid], the Safety and tolerability ([1]; total daily dose 100, 200, 250, 300, 500, 750 and 1000 mg, less than 14 days) is listed as “safe and well tolerated”, the Safety and tolerability ([1]; total daily doses 500 mg and 1000 mg, 14-42 days) is listed as “safe and well tolerated” and the “Increase in LDL cholesterol” value (LDL cholesterol) is listed as 8%. For the same compound, the “Maximum reduction in LTB4 production” value ([2]; 750 mg/day, [10%,39%], p=0.003) was 26%, the “Carry-over effect, LTB4 in whole blood, corr. for wbc, m.s.” value [2, 6] was 0.12 and the “Carry-over effect, LTB4 in whole blood, mass spec.” value [2, 6] was 0.19. For the same compound, the “Reduction of LTB4 produced by ionomycin-activated neutrophils ex vivo” value ([2]; pooled set of 500 mg and 750 mg arms, [6%,27%], nominal p=0.004) was 17%, the “Minimum plasma concentration maintained” value ([3]; 250 mg TID) was about 7 µM and the “Peak concentrations of DG-031” value ([3]; 250 mg TID) was “about 10 μg/ml and ~28 μM”. The “Steady state Cmin plasma concentration” value ([3]; 250 mg TID) was 2 to 3 µg/mL, the “Calculated AUC24h” value ([3]; 250 mg TID vs 375 mg BID, study 203) was “somewhat higher for 250 mg TID than for 375 mg BID” and the Cmin ([3]; 375 mg BID vs 250 mg TID, study 203) was “slightly higher for the TID dosing regimen”. For the same compound, the “Peak concentration with trough concentration of 3 μg/mL maintained” value ([3]; BID doses) was 14 µg/mL, the “Peak concentration required to keep steady-state concentration above 3 μg/ml” value ([3]; BID dosing, calculated for a 2.5 hour half-life (FIG. 4)) was about 30 µg/mL and the “Peak concentration with trough concentration of 3 μg/mL maintained” value ([3]; TID doses) was 7 to 8 µg/mL. The “Peak plasma concentration required to keep steady-state concentration above 3 μg/ml” value ([3]; TID dosing, calculated for a 2.5 hour half-life) was about 11 µg/mL, the “Drug required with TID dosing relative to BID schedule to maintain the minimum concentration” value ([3]; in vivo) was “about 70%” and the “Share of total exposure of the fraction with the slower half-life” value ([3]; in vivo) was “about 25%”. The LTB4 production ([4]; 250 mg TID, St. 203) was −25% (St. 203), the “Reduction of LTB4 production ex vivo” value ([4]; 250 mg TID, p=0.094) was 25% and the LTB4 production ([4]; 375 mg BID, Study 203, 2 hours, p = 0.016) was −30%. For the same compound, the “Reduction of LTB4 production ex vivo” value ([4]; 375 mg BID, p=0.016) was 30%, the LTB4 production ([4]; 375 mg QD, Study 203, 2 hours, NS) was −16% and the MPO in plasma (MPO; 250 mg TID, St. 203, 6 hours, P < 0.001) was −37% (St. 203). The “Drop of plasma MPO levels” value (MPO; 250 mg t.i.d., 6 hours after intake, [24%,47%], p<0.001) was 37%, the MPO in plasma (MPO; 375 mg BID, Study 203, 6 hours, NS) was −24% and the “Lowering of plasma MPO levels” value (MPO; 375 mg BID, p=0.067) was 24%. For the same compound, the MPO in plasma (MPO; 375 mg QD, Study 203, 6 hours) was “No effect”, the “Reduction of capacity for LTB4 production” value (from here on “Reduction of capacity”) ([5]; 250 mg BID dose group, p=0.1) was 18% and the LTB4 production ([5]; 250 mg BID, Study 201, NS) was −18%. For the same compound, the “Reduction of capacity” value ([5]; 250 mg QD dose group, p=0.22) was 13%, the LTB4 production ([5]; 250 mg QD, Study 201, 64 subjects, NS) was −13% and the “Reduction of capacity” value ([5]; 250 mg TID dose group, p=0.008) was 34%. The LTB4 production ([5]; 250 mg TID, St. 201, p = 0.008) was −34% (St. 201), the “Reduction of capacity” value ([5]; 250 mg TID, at steady state Cmin, [0%,56%], p=0.02) was 30% and the “Reduction of capacity” value ([5]; combined dose groups of 500 mg and 750 mg TDD, p=0.003) was “about 26%”.
